How the values were obtained:
Format in all cases: cell-based, Porcine
[1] = tested on: PAE/KDR cells; experiment: Actin reorganization / membrane ruffle formation (FITC-phalloidin); details: peptide at doses as high as 20 µM; 50 ng/ml VEGF 30 min 37°C
Protocol: (§1) Porcine Aortic Endothelial cells expressing VEGFR-2 (PAEKDR) were cultured in Ham’s F-12/DMEM medium supplemented with 10% fetal bovine serum (FBS) (Hyclone), 50 units/ml penicillin and 50 µg/ml streptomycin as described previously. Recombinant human VEGF was a kind gift from Genentech, CA. Antibodies: Anti-Phosphotyrosine clone 4G10 (Upstate Biotechnology/Millipore, Billerica, MA), monoclonal anti-Flk-1 (A-3) (Santa Cruz Biotechnology, Santacruz, CA), MAPK and phospho-specific MAPK antibodies (Calbiochem-Novabiochem Corporation/EMD chemicals, Gibbstown, NJ).
Subconfluent cells cultured on Falcon culture slides (BD Biosciences) were serum-starved overnight and stimulated for 30 min at 37°C with 50 ng/ml VEGF or control buffer. The cells were fixed with 3.7% paraformaldehyde in PBS for 30 min at 4°C and permeabilized with 0.2% Triton X-100 for 20 min at room temperature. Following rinsing with PBS, the cells were incubated with fluorescein isothiocyanate (FITC)-labeled phalloidin in PBS (0.66 µg/ml, Sigma Aldrich, St. Louis, MO) for 20 min at room temperature, washed with PBS and analyzed by fluorescence microscopy.
Figure 5 Effects of TIMP-3 peptides on VEGF-mediated actin reorganization. TIMP-3 loop 6 and tail but not loop 5 and N-peptide inhibit VEGF-induced actin reorganization in PAE/KDR cells. […]

[2] = tested on: PAE/KDR cells; experiment: Modified Boyden chamber migration assay; details: peptide up to 20 µM; 50 ng/ml VEGF, 4 h 37°C, mini-Boyden chamber; quadruplicate samples
Protocol: as §1
A modified Boyden chamber assay was performed as described previously. Briefly, 8.0 µm pore PVPF polycarbonate membranes were pre-coated with 100 µg/ml collagen type I in 0.2 N acetic acid (Cohesion technologies, Inc. Palo Alto, California). VEGF at the indicated concentrations was placed in the lower chamber, and cells (2×10^5) in serum-free medium were placed in the upper chambers. […] The number of migrating cells per well was evaluated by light microscopy.
Figure 4 Effects of TIMP-3 peptides on VEGF-mediated EC migration. […] Cells were analyzed for migration towards 50 ng/ml VEGF in the presence or absence of increasing concentrations of loop 6 (a) and tail peptides (b) or 20 µM loop 5 or N-peptide (c), respectively, using a mini-Boyden chamber incubated at 37°C for 4 h.

[3] = tested on: VEGFR-2 (KDR) in PAE/KDR cells; experiment: VEGF-induced VEGFR-2 phosphorylation (immunoprecipitation/western blot); details: 20 µM peptide, 50 ng/ml VEGF
Protocol: as §1
Immunoprecipitates of cell lysates with the indicated antibodies were subjected to SDS-PAGE and western blot analysis. Proteins were detected with either a HRP-conjugated anti-rabbit or anti-mouse IgG antibody (Amersham Pharmacia Biotech., Piscataway, NJ) followed by ECL. […]
Figure 3 Effects of TIMP-3 peptides on VEGF signaling in endothelial cells. […] Cell lysates were separated by SDS-PAGE (10%) and analyzed by immunoprecipitation with an anti-KDR anti-body followed by immunoblotting with an anti-phosphotyrosine antibody, 4G10 (top panel). KDR protein was analyzed by immunoprecipitation and immunoblotting of cell lysates using anti-KDR antibody (bottom panel). (b) Densitometric quantitation of 210-kDa bands for phospho- or total mature form of KDR. […]

Sequence | Inhibition of VEGF-stimulated membrane ruffle formation [1] | Inhibition of VEGF-induced migration [2] | Inhibition of VEGF-induced VEGFR-2 activation (phosphorylation) [3]
KIKSCYYLPCFVTS [T3-loop 5] | neither T3-loop 5 nor T3-N peptide at doses as high as 20 µM inhibited the formation of membrane ruffles | failed to inhibit VEGF-induced migration | failed to inhibit VEGF-induced receptor activation
RGFTKMPHVQYIHTEASESL [T3-N peptide] | neither T3-loop 5 nor T3-N peptide at doses as high as 20 µM inhibited the formation of membrane ruffles | failed to inhibit VEGF-induced migration | failed to inhibit VEGF-induced receptor activation
